Earlier results in patent publication US20150071857A1, “STEROID HORMONE AND CHOLESTEROL PATHWAYS AS ONE UNIFIED HOMEOSTATIC SYSTEM” (LIGAND PHARMACEUTICALS, INC., priority 2012, published 2015).
Read-outs that look alike come from different tables or passages of the source. Values belong to the molecule of their own block, whether it stands above or below them.

Columns and labels:
[1] = parenterally formulated progestin-only contraceptive, women
[2] = large WHI trials
[3] = high-dose, postmenopausal women
[4] = high dose, on top of statin therapy

thrombosis events [2]: doubled the thrombosis events
Structure (SMILES): CC(=O)O[C@]1(C(C)=O)CC[C@H]2[C@@H]3C[C@H](C)C4=CC(=O)CC[C@]4(C)[C@H]3CC[C@@]21C [Medroxyprogesterone acetate]
HDL-C change [1]: significant reduction in HDL-C

Structure (SMILES): O=c1c(-c2ccccc2)coc2ccccc12 [isoflavone]
HDL-C change [3]: significantly reduced
total T change [3]: significantly reduced

Structure (SMILES): O=C(O)c1cccnc1 [niacin]
cardiovascular events [4]: no significant reduction in cardiovascular events
